We go through six molecules from publication PMC8509428, “The Phenoxyalkyltriazine Antagonists for 5-HT6 Receptor with Promising Procognitive and Pharmacokinetic Properties In Vivo in Search for a Novel Therapeutic Approach to Dementia Diseases” (International Journal of Molecular Sciences, 2021).

Values joined by “and” are separate entries in the source; they are usually repeats but may differ in a detail not shown here. Equal values may be shown once. Where a name gives a salt, the structure may show the parent alone.

Experiment [1] has as its target human serotonin 5-HT6 receptor (Homo sapiens, UniProt P50406). Kind of experiment: Functional assay for 5-HT6 receptor (cAMP, 1321N1 cells).
A further experiment deals with rats. The conditions noted are these: i.p.; ref 10 (AG-1), 11 (AG-2), 12 (AN-1), 13 (AN-2); cited from earlier work.
The subject of experiment [2] is MK-801-induced memory deficits in rats. Conditions: MK-801 0.1 mg/kg i.p. + vehicle; cited from earlier work.
For experiment [3] the test system is unchanged. The experiment can be described thus: Novel object recognition (NOR) test, MK-801-induced memory impairment. It counts as in vivo, rat. Conditions: MK-801 0.1 mg/kg i.p. + vehicle; 0.1 mg/kg. The method, then:
Five days before the experiment, the rats were transferred to the laboratory, labelled and, thereafter, left to acclimate to the new environment. The animals were handling every five days before experiments to minimize the stress reaction. The protocol was adapted from the original work. The test session comprising of two trials separated by an inter-trial interval (ITI) of 1 h was carried out after 2 days of the training session. During the first trial (familiarization, T1) two identical objects (A1 and A2) were presented in the opposite corners of the open field, approximately 10 cm from the walls. During the second trial (recognition, T2) one of the A objects was replaced by a novel object B, so that the animals were presented with the A = familiar and B = novel objects. Both trials lasted for 3 min and the animals were returned to their home cages after T1.
The objects used were the metal Coca-Cola cans and the glass jars filled with sand. […] The sequence of presentations and the location of the objects were randomly assigned to each rat. After each measurement, the floor was cleaned and dried.
The animals explored the objects by looking, licking, sniffing or touching the object but not when leaning against, standing or sitting on the object. Any rat exploring the two objects for less than 5 s within 3 min of T1 or T2 was eliminated from the study. The exploration time of the objects was measured by a blind experimenter. Based on the exploration time (E) of two objects during T2, the discrimination index (DI) was calculated according to the formula: DI = (EB − EA)/(EA + […]). Using this metric, scores approaching zero reflects no preference while positive values reflect a preference for the novel object and negative numbers reflect a preference for the familiar.
MK-801, used to attenuate learning, was administered at the dose of 0.1 mg/kg (i.p.) 30 min before the familiarization phase (T1), while investigated compounds were given 60 min before T1 session. In such scheme of experiment we could observe the impact of investigated compounds on the one type of rats’ memory—episodic memory and one phase of memory process—[…].
The total exploration time in T2 was used to express the influence of the treatment on the exploratory activity of the animals.

The next experiment deals with 5-HT6R. Conditions: Figure 1; ref 10 (AG-1), 11 (AG-2), 12 (AN-1), 13 (AN-2); cited from earlier work.

Broadly, the Ki is a dissociation constant, usually derived from enzyme kinetics or from competition with a known ligand.

human serotonin 5-HT6 receptor, sequence (P50406 whole entry): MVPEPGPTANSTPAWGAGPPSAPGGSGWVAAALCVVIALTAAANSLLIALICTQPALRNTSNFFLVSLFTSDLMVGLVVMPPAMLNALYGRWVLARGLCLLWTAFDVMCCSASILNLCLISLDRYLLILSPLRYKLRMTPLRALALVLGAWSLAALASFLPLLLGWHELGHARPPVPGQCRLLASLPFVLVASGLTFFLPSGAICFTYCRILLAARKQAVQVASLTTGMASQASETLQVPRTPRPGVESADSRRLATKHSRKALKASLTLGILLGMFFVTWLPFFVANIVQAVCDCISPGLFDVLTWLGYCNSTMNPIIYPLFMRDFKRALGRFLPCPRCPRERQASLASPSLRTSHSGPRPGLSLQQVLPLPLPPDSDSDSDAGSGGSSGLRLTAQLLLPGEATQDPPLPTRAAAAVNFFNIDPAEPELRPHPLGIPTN

For `COc1ccc(NS(=O)(=O)c2ccc(I)cc2)cc1N1CCN(C)CC1` [SB258585], the “5-HT6 Antagonist Mode Emax” value in experiment [1] (Table S1, % of reference antagonist (SB258585 10^-5 M)) came to 100%. Moreover, the “5-HT6R Agonist Mode Emax” value in experiment [1] (± SEM, % of maximal agonist response (Serotonin 10^−5 M)) was found to be 2.00 ± 0.50%.
Regarding `NCCc1cn(S(=O)(=O)c2c(Cl)nc3sccn23)c2ccccc12` [AG-2], the “dose with procognitive effect in the NOR test” value (shortened to “dose with procognitive effect”) in the experiment with rats is 3 mg/kg.
Consider `C[C@]12N[C@H](Cc3ccccc31)c1ccccc12` [MK-801, MK-801 maleate, reference compound], for which the “Discrimination Index” value in experiment [2] is −0.07 ± 0.01. Besides, the “Total Exploratory Time in T2 Session” value in experiment [3] was 42.00 ± 3.13 s and 47.07 ± 3.89 s.
For `CN(C)CCn1cnc2ccc(NS(=O)(=O)c3ccc4c(Cl)cccc4c3)cc21` [AN-2], the Ki on 5-HT6R was 9 nM. Moreover, the “dose with procognitive effect” value with rats is recorded as 1 mg/kg.
Consider `CN(C)CCc1c[nH]c2ccc(NS(=O)(=O)c3c(Cl)nc4sccn34)cc12` [AG-1], for which the “dose with procognitive effect” value with rats is 2.5 mg/kg.
For `COc1ccc2c(c1)c(C1=CCNCC1)cn2S(=O)(=O)c1cncc2ccccc12` [AN-1], the inhibition constant Ki on 5-HT6R was 3 nM. In addition, the “dose with procognitive effect” value in the experiment with rats is on record as 1 mg/kg.
